From patent US8445510B2, “Fused bicyclic kinase inhibitors” (OSI Pharmaceuticals, LLC, priority 2011, dated 2013)
pIC50: −log10 of the molar value.

Tests used:
MKN45 cells = experiment: MKN45 cell proliferation assay (CellTiter-Glo); type: cell-based; settings: Homo sapiens, MKN-45, 72 h; MKN45 cell line; 3 days incubation; at least duplicate experiments; read-out: Prolif. IC50
RON = biological target: T1, RON (Homo sapiens, UniProt Q04912); experiment: sfRON cell mechanistic assay (HeLa), phosphorylated RON ELISA; type: cell-based; settings: HeLa cells transfected with sfRON; inhibition of phosphorylated RON; four hours incubation; at least duplicate experiments; read-out: sfRON mech IC50
T1 sequence (Q04912 913-1400): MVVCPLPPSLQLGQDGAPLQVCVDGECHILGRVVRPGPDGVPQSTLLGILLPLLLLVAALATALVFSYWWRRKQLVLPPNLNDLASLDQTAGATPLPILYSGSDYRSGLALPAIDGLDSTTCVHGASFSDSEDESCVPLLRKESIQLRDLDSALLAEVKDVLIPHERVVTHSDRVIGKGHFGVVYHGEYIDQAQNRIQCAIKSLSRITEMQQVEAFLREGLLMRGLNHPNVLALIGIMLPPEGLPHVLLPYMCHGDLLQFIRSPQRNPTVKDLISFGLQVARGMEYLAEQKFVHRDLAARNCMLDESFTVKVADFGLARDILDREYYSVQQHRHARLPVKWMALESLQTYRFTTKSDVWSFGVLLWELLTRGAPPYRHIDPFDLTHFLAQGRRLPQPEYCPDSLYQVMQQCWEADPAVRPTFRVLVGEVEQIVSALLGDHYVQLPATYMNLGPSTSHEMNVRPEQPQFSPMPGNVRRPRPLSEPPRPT
Procedure, shortened: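 HeLa cells transiently transfected with sfRON plasmid, then exposed 4 h at 37 °C to a 6-point compound series (typically 10 μM to 3 nM, 0.5% DMSO). Phospho-RON (pY1238/1239) in lysates measured by sandwich ELISA with luminescence. IC50 from 4-parameter fit of percent-of-DMSO-control data, at least duplicate runs.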

| Compound | pIC50 (MKN45 cells) | pIC50 (RON) |
| --- | --- | --- |
| COc1ccc(F)c(Cl)c1[C@@H](C)c1c[nH]c2ncc(-c3cn([C@H]4CC[C@H](C(=O)N(C)C)CC4)nc3C)cc12 [Example 23, trans-4-(4-{3-[(1S)-1-(2-chloro-3-fluoro-6-methoxyphenyl)ethyl]-1H-pyrrolo[2,3-b]pyridin-5-yl}-3-methyl-1H-pyrazol-1-yl)-N,N-dimethylcyclohexanecarboxamide] | ≥ 7.30 | ≥ 6.70 |
| CNC(=O)[C@H]1CC[C@H](n2nc(C)c(-c3cnc4[nH]cc([C@H](C)c5c(OC)ccc(F)c5Cl)c4c3)c2C)CC1 [Example 24, trans-4-(4-{3-[(1S)-1-(2-Chloro-3-fluoro-6-methoxyphenyl)ethyl]-1H-pyrrolo[2,3-b]pyridin-5-yl}-3,5-dimethyl-1H-pyrazol-1-yl)-N-methylcyclohexanecarboxamide] | ≥ 7.30 | 6.00 to 6.70 |
| COc1ccc(F)c(Cl)c1[C@@H](C)c1c[nH]c2ncc(-c3cn([C@H]4CC[C@H](O)CC4)nc3C)cc12 [Example 28, trans-4-(4-{3-[(1S)-1-(2-Chloro-3-fluoro-6-methoxyphenyl)ethyl]-1H-pyrrolo[2,3-b]pyridin-5-yl}-3-methyl-1H-pyrazol-1-yl)cyclohexanol] | ≥ 7.30 | ≥ 6.70 |
